What was measured:
Assay in all cases: Kinase selectivity, DiscoverX scanMAX Kinase assay panel (% control)
Assay type in all cases: binding
[1] = molecular target: T1, kinases of the scanMAX Kinase assay panel (Homo sapiens, UniProt P27448); settings: MARK3; 1 uM
T1 construct: purchased DiscoverX Co. (contract measurement) scanMAX Kinase assay panel
Procedure, shortened: (§1)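 Compounds were tested at 1 uM (in DMSO) against each panel kinase. % control was calculated as (compound − positive control)/(negative control − positive control)×100, where the positive control gives 0% and DMSO gives 100%. Activity toward a kinase was called at % control <35%.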

[2] = molecular target: T2, kinases of the scanMAX Kinase assay panel (Homo sapiens, UniProt P78368); settings: CSNK1G2; 1 uM
T2 construct: purchased DiscoverX Co. (contract measurement) scanMAX Kinase assay panel
T2 sequence (P78368 whole entry): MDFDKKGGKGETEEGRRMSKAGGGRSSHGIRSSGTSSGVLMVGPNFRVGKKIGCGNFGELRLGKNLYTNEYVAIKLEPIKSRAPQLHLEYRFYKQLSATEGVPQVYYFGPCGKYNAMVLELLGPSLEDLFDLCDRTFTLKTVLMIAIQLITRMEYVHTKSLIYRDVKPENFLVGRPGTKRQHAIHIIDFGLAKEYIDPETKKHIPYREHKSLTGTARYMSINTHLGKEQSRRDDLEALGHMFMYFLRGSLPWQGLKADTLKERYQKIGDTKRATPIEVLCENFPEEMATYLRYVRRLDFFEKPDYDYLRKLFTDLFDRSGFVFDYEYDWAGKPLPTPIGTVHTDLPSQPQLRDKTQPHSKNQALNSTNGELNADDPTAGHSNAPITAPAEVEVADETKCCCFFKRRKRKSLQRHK
Procedure, shortened: as §1

[3] = molecular target: T3, kinases of the scanMAX Kinase assay panel (Homo sapiens, UniProt P43403); settings: kinase ZAP70; 1 uM in DMSO
T3 construct: purchased DiscoverX Co. (contract measurement) scanMAX Kinase assay panel
T3 sequence (P43403 1-619): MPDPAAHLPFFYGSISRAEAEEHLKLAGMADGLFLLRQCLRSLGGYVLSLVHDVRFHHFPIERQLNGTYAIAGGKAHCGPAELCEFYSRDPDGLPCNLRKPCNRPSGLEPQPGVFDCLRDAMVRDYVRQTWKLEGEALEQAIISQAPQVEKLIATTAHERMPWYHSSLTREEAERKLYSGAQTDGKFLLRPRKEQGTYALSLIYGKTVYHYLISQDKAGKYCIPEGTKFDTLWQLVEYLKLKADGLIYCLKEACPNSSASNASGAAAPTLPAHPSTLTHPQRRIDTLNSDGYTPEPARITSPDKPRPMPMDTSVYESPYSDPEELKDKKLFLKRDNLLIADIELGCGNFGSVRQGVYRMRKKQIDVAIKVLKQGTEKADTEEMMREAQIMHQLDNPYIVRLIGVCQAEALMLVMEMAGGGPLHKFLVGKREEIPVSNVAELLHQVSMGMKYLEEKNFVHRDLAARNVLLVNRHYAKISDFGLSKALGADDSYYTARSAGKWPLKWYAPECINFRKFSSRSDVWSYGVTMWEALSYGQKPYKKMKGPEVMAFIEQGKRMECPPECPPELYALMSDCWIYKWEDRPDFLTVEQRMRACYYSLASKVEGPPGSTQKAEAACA
Procedure, shortened: as §1

[4] = molecular target: T4, kinases of the scanMAX Kinase assay panel (Homo sapiens, UniProt P52564); settings: MEK6; 1 uM
T4 construct: purchased DiscoverX Co. (contract measurement) scanMAX Kinase assay panel
T4 sequence (P52564 1-334): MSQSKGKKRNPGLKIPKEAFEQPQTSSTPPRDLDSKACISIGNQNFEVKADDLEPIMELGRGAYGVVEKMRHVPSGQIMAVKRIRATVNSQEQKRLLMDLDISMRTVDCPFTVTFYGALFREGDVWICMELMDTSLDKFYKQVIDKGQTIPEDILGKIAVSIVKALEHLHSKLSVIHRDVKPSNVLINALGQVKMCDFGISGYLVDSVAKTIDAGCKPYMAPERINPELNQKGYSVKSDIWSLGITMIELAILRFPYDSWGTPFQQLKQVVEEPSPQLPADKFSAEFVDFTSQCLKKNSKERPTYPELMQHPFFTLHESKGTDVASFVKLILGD
Procedure, shortened: as §1

[5] = molecular target: T5, kinases of the scanMAX Kinase assay panel (Homo sapiens, UniProt Q6ZN16); settings: MAP3K15; 1 uM
T5 construct: purchased DiscoverX Co. (contract measurement) scanMAX Kinase assay panel
T5 sequence (Q6ZN16 1-1313): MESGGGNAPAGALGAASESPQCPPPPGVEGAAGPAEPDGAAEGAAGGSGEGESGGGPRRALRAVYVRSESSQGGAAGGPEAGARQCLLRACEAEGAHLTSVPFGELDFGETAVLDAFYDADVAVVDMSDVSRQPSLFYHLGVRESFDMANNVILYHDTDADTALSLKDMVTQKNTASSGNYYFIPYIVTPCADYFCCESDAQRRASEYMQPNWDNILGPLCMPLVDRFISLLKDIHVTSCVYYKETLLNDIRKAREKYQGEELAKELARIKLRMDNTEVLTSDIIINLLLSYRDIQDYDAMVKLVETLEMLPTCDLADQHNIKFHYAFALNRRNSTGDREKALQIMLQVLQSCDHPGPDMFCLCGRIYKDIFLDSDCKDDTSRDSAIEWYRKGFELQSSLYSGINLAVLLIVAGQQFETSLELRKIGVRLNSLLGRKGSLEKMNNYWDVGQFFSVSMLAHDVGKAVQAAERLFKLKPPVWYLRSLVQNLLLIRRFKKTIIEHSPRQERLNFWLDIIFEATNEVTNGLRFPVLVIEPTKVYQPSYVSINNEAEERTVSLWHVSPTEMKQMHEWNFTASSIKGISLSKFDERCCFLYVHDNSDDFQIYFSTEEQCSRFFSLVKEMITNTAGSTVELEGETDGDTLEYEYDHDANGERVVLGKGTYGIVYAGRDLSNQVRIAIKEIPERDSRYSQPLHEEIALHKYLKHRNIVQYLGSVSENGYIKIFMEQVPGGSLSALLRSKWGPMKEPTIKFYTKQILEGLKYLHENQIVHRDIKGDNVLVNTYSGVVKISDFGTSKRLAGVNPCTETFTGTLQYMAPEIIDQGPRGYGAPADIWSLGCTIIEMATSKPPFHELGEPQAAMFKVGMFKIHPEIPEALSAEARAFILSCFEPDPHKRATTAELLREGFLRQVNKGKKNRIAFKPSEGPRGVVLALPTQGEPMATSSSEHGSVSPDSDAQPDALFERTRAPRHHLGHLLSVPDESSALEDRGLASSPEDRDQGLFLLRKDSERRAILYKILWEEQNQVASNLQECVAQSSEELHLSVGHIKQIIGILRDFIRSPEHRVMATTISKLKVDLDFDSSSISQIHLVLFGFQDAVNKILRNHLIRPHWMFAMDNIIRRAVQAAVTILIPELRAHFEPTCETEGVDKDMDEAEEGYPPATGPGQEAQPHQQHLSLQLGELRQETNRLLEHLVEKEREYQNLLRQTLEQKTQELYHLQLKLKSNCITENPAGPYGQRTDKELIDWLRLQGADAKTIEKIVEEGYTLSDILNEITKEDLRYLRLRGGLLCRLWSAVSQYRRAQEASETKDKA
Procedure, shortened: as §1

[6] = molecular target: T6, kinases of the scanMAX Kinase assay panel (Homo sapiens, UniProt Q8N568); settings: DCAMKL2; 1 uM
T6 construct: purchased DiscoverX Co. (contract measurement) scanMAX Kinase assay panel
T6 sequence (Q8N568 whole entry): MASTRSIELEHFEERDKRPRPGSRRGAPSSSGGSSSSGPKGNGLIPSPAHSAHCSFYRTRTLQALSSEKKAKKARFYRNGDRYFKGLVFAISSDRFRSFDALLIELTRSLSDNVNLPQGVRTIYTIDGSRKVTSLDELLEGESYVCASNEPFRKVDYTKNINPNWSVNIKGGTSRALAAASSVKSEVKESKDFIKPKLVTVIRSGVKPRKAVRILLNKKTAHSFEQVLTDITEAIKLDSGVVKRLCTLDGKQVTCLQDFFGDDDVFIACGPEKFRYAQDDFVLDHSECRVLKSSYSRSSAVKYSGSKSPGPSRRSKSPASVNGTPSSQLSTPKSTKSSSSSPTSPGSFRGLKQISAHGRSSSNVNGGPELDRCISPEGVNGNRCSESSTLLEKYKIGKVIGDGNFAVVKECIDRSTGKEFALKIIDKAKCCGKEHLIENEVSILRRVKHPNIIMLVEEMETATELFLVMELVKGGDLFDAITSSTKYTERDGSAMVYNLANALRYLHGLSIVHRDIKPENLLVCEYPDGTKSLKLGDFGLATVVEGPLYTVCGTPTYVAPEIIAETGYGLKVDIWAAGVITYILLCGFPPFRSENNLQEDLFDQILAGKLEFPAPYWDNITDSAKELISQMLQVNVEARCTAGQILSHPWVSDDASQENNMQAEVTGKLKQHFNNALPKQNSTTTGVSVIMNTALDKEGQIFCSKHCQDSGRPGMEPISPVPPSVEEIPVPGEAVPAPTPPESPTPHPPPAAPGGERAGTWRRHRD
Procedure, shortened: as §1

[7] = molecular target: T7, kinases of the scanMAX Kinase assay panel (Homo sapiens, UniProt P49841); settings: GSK3B; 1 uM
T7 construct: purchased DiscoverX Co. (contract measurement) scanMAX Kinase assay panel
T7 sequence (P49841 whole entry): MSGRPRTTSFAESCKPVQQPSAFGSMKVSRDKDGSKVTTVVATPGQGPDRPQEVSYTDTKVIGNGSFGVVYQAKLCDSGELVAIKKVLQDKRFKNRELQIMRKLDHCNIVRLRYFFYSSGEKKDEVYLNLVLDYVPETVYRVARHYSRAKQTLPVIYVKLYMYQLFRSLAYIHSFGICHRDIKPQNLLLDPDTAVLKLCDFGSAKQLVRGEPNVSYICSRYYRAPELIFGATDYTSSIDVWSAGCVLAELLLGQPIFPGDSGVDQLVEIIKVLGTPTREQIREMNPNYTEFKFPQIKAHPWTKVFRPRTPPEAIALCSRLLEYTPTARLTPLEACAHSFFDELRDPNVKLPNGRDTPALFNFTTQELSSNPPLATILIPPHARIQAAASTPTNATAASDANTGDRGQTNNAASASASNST
Procedure, shortened: as §1

T1 sequence (P27448 whole entry): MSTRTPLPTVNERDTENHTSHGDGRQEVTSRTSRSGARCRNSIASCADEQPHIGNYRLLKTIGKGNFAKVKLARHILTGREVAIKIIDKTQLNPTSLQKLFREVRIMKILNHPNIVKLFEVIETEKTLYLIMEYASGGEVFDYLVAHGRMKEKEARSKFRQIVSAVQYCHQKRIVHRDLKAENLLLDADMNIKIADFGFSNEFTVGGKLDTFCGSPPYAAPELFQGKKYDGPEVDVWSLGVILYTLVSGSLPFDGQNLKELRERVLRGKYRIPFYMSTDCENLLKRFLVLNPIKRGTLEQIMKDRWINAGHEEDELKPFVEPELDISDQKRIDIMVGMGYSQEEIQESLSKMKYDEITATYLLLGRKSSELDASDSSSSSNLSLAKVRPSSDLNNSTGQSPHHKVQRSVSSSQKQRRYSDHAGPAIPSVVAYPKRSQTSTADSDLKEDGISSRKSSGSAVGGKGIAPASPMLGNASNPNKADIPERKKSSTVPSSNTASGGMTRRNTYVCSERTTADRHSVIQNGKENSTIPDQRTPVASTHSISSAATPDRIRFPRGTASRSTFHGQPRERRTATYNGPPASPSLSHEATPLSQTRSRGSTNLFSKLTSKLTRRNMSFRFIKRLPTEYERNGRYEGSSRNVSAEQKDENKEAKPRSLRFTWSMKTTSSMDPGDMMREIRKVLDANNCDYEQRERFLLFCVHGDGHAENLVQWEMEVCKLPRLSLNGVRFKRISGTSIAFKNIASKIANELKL

Row | Structure (SMILES) | remaining binding at 1 µM [1] | remaining binding at 1 µM [2] | remaining binding at 1 µM [3] | remaining binding at 1 µM [4] | remaining binding at 1 µM [5] | remaining binding at 1 µM [6] | remaining binding at 1 µM [7]
1 | CNc1nc(Nc2ccc(C(=O)N3CCOCC3)cc2OC)nc2[nH]cc(C#N)c12 [Example 1, 2-((2-methoxy-4-(morpholine-4-carbonyl)phenyl)amino)-4-(methylamino)-7H-pyrrolo[2,3-d]pyrimidine-5-carbonitrile] | 100% | 58% | 35% | 43% | 35% | 91% | 79%
2 | CC1(Nc2nc(Nc3cnn([C@H]4CCN(C5COC5)C[C@@H]4F)c3Cl)nc3[nH]cc(C#N)c23)CC1 [Example 52, 2-((5-chloro-1-((3S,4S)-3-fluoro-1-(oxetane-3-yl)piperidine-4-yl)-1H-pyrazole-4-yl)amino)((1-methylcyclopropyl)amino)-7H-pyrrolo[2,3-d]pyrimidine-5-carbonitrile] | 29% | 0.1% | 2.2% | 19% | 27% | 76% | 50%
3 | CCNc1nc(Nc2ccc(C(=O)N3CCC(N4CCOCC4)CC3)cc2OC)nc2[nH]cc(C(F)(F)F)c12 [Example 104, (4-((4-(ethylamino)-5-(trifluoromethyl)-7H-pyrrolo[2,3-d]pyrimidine-2-yl)amino)-3-methoxyphenyl)(4-morpholinopiperidine-1-yl)methanone] | 86% | 100% | 100% | 92% | 61% | 93% | 83%

From patent US11208412B2 (DAEGU-GYEONGBUK MEDICAL INNOVATION FOUNDATION, priority 2017, dated 2021)
